Experimental data: patent US9790229B2, “Bruton's tyrosine kinase inhibitors” (priority 2009, dated 2017)
Where two headings read alike, the source gives them in different places.

Target: BTK (Homo sapiens (Human), UniProt Q06187)
Experiment: In vitro BTK kinase assay: BTK-POLYGAT-LS ASSAY
[1] = read-out: IC50 (10 uM ATP), 10 uM ATP, in vitro Btk kinase assay, Example 41

BTK, sequence (Q06187 whole entry): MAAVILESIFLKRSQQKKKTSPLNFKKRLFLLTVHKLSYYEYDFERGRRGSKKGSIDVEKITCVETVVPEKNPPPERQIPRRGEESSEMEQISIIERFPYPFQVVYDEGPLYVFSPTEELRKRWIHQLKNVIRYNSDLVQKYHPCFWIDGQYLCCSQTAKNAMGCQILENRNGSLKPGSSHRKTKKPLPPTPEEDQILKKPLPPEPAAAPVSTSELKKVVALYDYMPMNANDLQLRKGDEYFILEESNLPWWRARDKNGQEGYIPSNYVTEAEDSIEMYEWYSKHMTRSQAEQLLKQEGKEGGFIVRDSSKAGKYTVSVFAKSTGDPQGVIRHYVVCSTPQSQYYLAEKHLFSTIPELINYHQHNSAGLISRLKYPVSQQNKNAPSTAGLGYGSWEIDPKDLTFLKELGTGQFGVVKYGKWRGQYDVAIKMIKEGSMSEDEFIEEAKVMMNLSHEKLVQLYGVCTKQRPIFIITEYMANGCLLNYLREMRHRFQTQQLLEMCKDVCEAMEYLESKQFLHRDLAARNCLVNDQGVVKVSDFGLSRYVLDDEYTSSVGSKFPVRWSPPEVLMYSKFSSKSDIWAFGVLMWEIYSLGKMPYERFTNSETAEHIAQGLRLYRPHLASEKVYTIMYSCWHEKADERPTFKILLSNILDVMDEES

## CC(=O)NCc1ccccc1NC(=O)Nc1cccc(C2CCCN(c3ncnc4[nH]ccc34)C2)c1 (stereo not drawn) [Cmpd 62, N-(2-(3-(3-(1-(7H-pyrrolo[2,3-d]pyrimidin-4-yl)piperidin-3-yl)phenyl)ureido)benzyl)acetamide]
  IC50: 1 to 10 µM

## CN(C)Cc1ccccc1NC(=O)Nc1cccc(C2CCCN(c3ncnc4[nH]ccc34)C2)c1 (stereo not drawn) [Cmpd 63, 1-(3-(1-(7H-pyrrolo[2,3-d]pyrimidin-4-yl)piperidin-3-yl)phenyl)-3-(2-((dimethylamino)methyl)phenyl)urea]
  IC50: 1 to 10 µM

## CS(=O)(=O)c1ccccc1NC(=O)Nc1cccc(C2CCCN(c3ncnc4[nH]ccc34)C2)c1 (stereo not drawn) [Cmpd 64, 1-(3-(1-(7H-pyrrolo[2,3-d]pyrimidin-4-yl)piperidin-3-yl)phenyl)-3-(2-(methylsulfonyl)phenyl)urea]
  IC50: 1 to 10 µM

## N#Cc1ccccc1NC(=O)Nc1cccc(C2CCCN(c3ncnc4[nH]ccc34)C2)c1 (stereo not drawn) [Cmpd 65, 1-(3-(1-(7H-pyrrolo[2,3-d]pyrimidin-4-yl)piperidin-3-yl)phenyl)-3-(2-cyanophenyl)urea]
[1]
  IC50: > 10 µM

## Cc1cc(NC(=O)Nc2cccc(C3CCCN(c4ncnc5[nH]ccc45)C3)c2)on1 (stereo not drawn) [Cmpd 66, 1-(3-(1-(7H-pyrrolo[2,3-d]pyrimidin-4-yl)piperidin-3-yl)phenyl)-3-(3-methylisoxazol-5-yl)urea]
  IC50: 1 to 10 µM

## S=C(Nc1ccccc1)Nc1cccc(C2CCCN(c3ncnc4[nH]ccc34)C2)c1 (stereo not drawn) [Cmpd 67, 1-(3-(1-(7H-pyrrolo[2,3-d]pyrimidin-4-yl)piperidin-3-yl)phenyl)-3-phenylthiourea]
[1]
  IC50: > 10 µM

## O=S(=O)(Nc1cccc(C2CCCN(c3ncnc4[nH]ccc34)C2)c1)c1ccccc1 (stereo not drawn) [Cmpd 68, N-(3-(1-(7H-pyrrolo[2,3-d]pyrimidin-4-yl)piperidin-3-yl)phenyl)benzenesulfonamide]
[1]
  IC50: > 10 µM

## O=c1c(Nc2ccccc2)c(Nc2cccc(C3CCCN(c4ncnc5[nH]ccc45)C3)c2)c1=O (stereo not drawn) [Cmpd 69, 3-(3-(1-(7H-pyrrolo[2,3-d]pyrimidin-4-yl)piperidin-3-yl)phenylamino)-4-(phenylamino)cyclobut-3-ene-1,2-dione]
[1]
  IC50: > 10 µM

## O=c1c(Nc2ccc(Cl)cc2)c(Nc2cccc(C3CCCN(c4ncnc5[nH]ccc45)C3)c2)c1=O (stereo not drawn) [Cmpd 70, 3-(3-(1-(7H-pyrrolo[2,3-d]pyrimidin-4-yl)piperidin-3-yl)phenylamino)-4-(4-chlorophenylamino)cyclobut-3-ene-1,2-dione]
[1]
  IC50: > 10 µM

## O=c1c(Nc2cccc(Cl)c2)c(Nc2cccc(C3CCCN(c4ncnc5[nH]ccc45)C3)c2)c1=O (stereo not drawn) [Cmpd 71, 3-(3-(1-(7H-pyrrolo[2,3-d]pyrimidin-4-yl)piperidin-3-yl)phenylamino)-4-(3-chlorophenylamino)cyclobut-3-ene-1,2-dione]
[1]
  IC50: > 10 µM

## CNc1c(Nc2cccc(C3CCCN(c4ncnc5[nH]ccc45)C3)c2)c(=O)c1=O (stereo not drawn) [Cmpd 72, 3-(3-(1-(7H-pyrrolo[2,3-d]pyrimidin-4-yl)piperidin-3-yl)phenylamino)-4-(methylamino)cyclobut-3-ene-1,2-dione]
[1]
  IC50: > 10 µM

## CC(C)(C)Nc1c(Nc2cccc(C3CCCN(c4ncnc5[nH]ccc45)C3)c2)c(=O)c1=O (stereo not drawn) [Cmpd 73, 3-(3-(1-(7H-pyrrolo[2,3-d]pyrimidin-4-yl)piperidin-3-yl)phenylamino)-4-(tert-butylamino)cyclobut-3-ene-1,2-dione]
[1]
  IC50: > 10 µM

## N#C/N=C(\Nc1cccc(C2CCCN(c3ncnc4[nH]ccc34)C2)c1)NC1CCCCC1 (stereo not drawn) [Cmpd 75]
  IC50: 1 to 10 µM

## N#C/N=C(/NCC1CCCCC1)Nc1cccc(C2CCCN(c3ncnc4[nH]ccc34)C2)c1 (stereo not drawn) [Cmpd 76, (E)-1-(3-(1-(7H-pyrrolo[2,3-d]pyrimidin-4-yl)piperidin-3-yl)phenyl)-2-cyano-3-(cyclohexylmethyl)guanidine]
[1]
  IC50: > 10 µM

## CN/C(=N/C#N)Nc1cccc(C2CCCN(c3ncnc4[nH]ccc34)C2)c1 (stereo not drawn) [Cmpd 77, (E)-1-(3-(1-(7H-pyrrolo[2,3-d]pyrimidin-4-yl)piperidin-3-yl)phenyl)-2-cyano-3-methylguanidine]
[1]
  IC50: > 10 µM

## CC(C)(C)N/C(=N/C#N)Nc1cccc(C2CCCN(c3ncnc4[nH]ccc34)C2)c1 (stereo not drawn) [Cmpd 78, (Z)-1-(3-(1-(7H-pyrrolo[2,3-d]pyrimidin-4-yl)piperidin-3-yl)phenyl)-3-tert-butyl-2-cyanoguanidine]
[1]
  IC50: > 10 µM

## Cc1ccc(NC(=O)Nc2ccccc2)cc1C1CCCN(c2ncnc3[nH]ccc23)C1 (stereo not drawn) [Cmpd 79, 1-(3-(1-(7H-pyrrolo[2,3-d]pyrimidin-4-yl)piperidin-3-yl)-4-methylphenyl)-3-phenylurea]
[1]
  IC50: > 10 µM

## Cc1ccc(NC(=O)c2ccccc2)cc1C1CCCN(c2ncnc3[nH]ccc23)C1 (stereo not drawn) [Cmpd 80, N-(3-(1-(7H-pyrrolo[2,3-d]pyrimidin-4-yl)piperidin-3-yl)-4-methylphenyl)benzamide]
[1]
  IC50: > 10 µM

## Cc1ccc(C2CCCN(c3ncnc4[nH]ccc34)C2)cc1NC(=O)Nc1ccccc1 (stereo not drawn) [Cmpd 81, 1-(5-(1-(7H-pyrrolo[2,3-d]pyrimidin-4-yl)piperidin-3-yl)-2-methylphenyl)-3-phenylurea]
[1]
  IC50: > 10 µM

## Cc1ccc(C2CCCN(c3ncnc4[nH]ccc34)C2)cc1NC(=O)c1ccccc1 (stereo not drawn) [Cmpd 82, N-(5-(1-(7H-pyrrolo[2,3-d]pyrimidin-4-yl)piperidin-3-yl)-2-methylphenyl)benzamide]
[1]
  IC50: > 10 µM

## O=C(Nc1ccccc1)Nc1cc(C2CCCN(c3ncnc4[nH]ccc34)C2)cc(C(F)(F)F)c1 (stereo not drawn) [Cmpd 83, 1-(3-(1-(7H-pyrrolo[2,3-d]pyrimidin-4-yl)piperidin-3-yl)-5-(trifluoromethyl)phenyl)-3-phenylurea]
[1]
  IC50: > 10 µM

## O=C(Nc1cc(C2CCCN(c3ncnc4[nH]ccc34)C2)cc(C(F)(F)F)c1)c1ccccc1 (stereo not drawn) [Cmpd 84, N-(3-(1-(7H-pyrrolo[2,3-d]pyrimidin-4-yl)piperidin-3-yl)-5-(trifluoromethyl)phenyl)benzamide]
[1]
  IC50: > 10 µM

## O=C(Nc1cc(C2CCCN(c3ncnc4[nH]ccc34)C2)ccc1OC(F)(F)F)c1ccccc1 (stereo not drawn) [Cmpd 85, N-(5-(1-(7H-pyrrolo[2,3-d]pyrimidin-4-yl)piperidin-3-yl)-2-(trifluoromethoxy)phenyl)benzamide]
  IC50: 0.1 to 0.999 µM

## O=C(Nc1cc(C2CCCN(c3ncnc4[nH]ccc34)C2)ccc1OC(F)(F)F)c1ccccc1Cl (stereo not drawn) [Cmpd 86, N-(5-(1-(7H-pyrrolo[2,3-d]pyrimidin-4-yl)piperidin-3-yl)-2-(trifluoromethoxy)phenyl)-2-chlorobenzamide]
  IC50: 0.1 to 0.999 µM

## O=C(Nc1cc(C2CCCN(c3ncnc4[nH]ccc34)C2)ccc1OC(F)(F)F)C1CCCCC1 (stereo not drawn) [Cmpd 87, N-(5-(1-(7H-pyrrolo[2,3-d]pyrimidin-4-yl)piperidin-3-yl)-2-(trifluoromethoxy)phenyl)cyclohexanecarboxamide]
  IC50: 0.1 to 0.999 µM

## O=C(Nc1cc(C2CCCN(c3ncnc4[nH]ccc34)C2)ccc1OC(F)(F)F)c1c(Cl)cccc1Cl (stereo not drawn) [Cmpd 88, N-(5-(1-(7H-pyrrolo[2,3-d]pyrimidin-4-yl)piperidin-3-yl)-2-(trifluoromethoxy)phenyl)-2,6-dichlorobenzamide]
  IC50: 1 to 10 µM

## O=C(Nc1cc(C2CCCN(c3ncnc4[nH]ccc34)C2)ccc1OC(F)(F)F)c1ccccc1F (stereo not drawn) [Cmpd 89, N-(5-(1-(7H-pyrrolo[2,3-d]pyrimidin-4-yl)piperidin-3-yl)-2-(trifluoromethoxy)phenyl)-2-fluorobenzamide]
  IC50: 1 to 10 µM

## O=C(Nc1cc(C2CCCN(c3ncnc4[nH]ccc34)C2)ccc1OC(F)(F)F)c1c(F)cccc1Cl (stereo not drawn) [Cmpd 90, N-(5-(1-(7H-pyrrolo[2,3-d]pyrimidin-4-yl)piperidin-3-yl)-2-(trifluoromethoxy)phenyl)-2-chloro-6-fluorobenzamide]
  IC50: 0.1 to 0.999 µM

## O=C(Nc1ccccc1)Nc1cccc(C2CCCN(c3ncnc4[nH]ncc34)C2)c1 (stereo not drawn) [Cmpd 91, 1-(3-(1-(1H-pyrazolo[3,4-d]pyrimidin-4-yl)piperidin-3-yl)phenyl)-3-phenylurea]
  IC50: 1 to 10 µM

## CC(=O)Nc1cc(N2CCCC(c3cccc(NC(=O)Nc4ccccc4)c3)C2)ncn1 (stereo not drawn) [Cmpd 92, N-(6-(3-(3-(3-phenylureido)phenyl)piperidin-1-yl)pyrimidin-4-yl)acetamide]
[1]
  IC50: > 10 µM

## Cn1ccc2c(N3CCCC(c4cccc(NC(=O)Nc5ccccc5)c4)C3)ncnc21 (stereo not drawn) [Cmpd 93, 1-(3-(1-(7-methyl-7H-pyrrolo[2,3-d]pyrimidin-4-yl)piperidin-3-yl)phenyl)-3-phenylurea]
[1]
  IC50: > 10 µM

## Nc1cc(N2CCCC(c3cccc(NC(=O)Nc4ccccc4)c3)C2)ncn1 (stereo not drawn) [Cmpd 94, 1-(3-(1-(6-aminopyrimidin-4-yl)piperidin-3-yl)phenyl)-3-phenylurea]
  IC50: 1 to 10 µM

## CNc1cc(N2CCCC(c3cccc(NC(=O)Nc4ccccc4)c3)C2)ncn1 (stereo not drawn) [Cmpd 95, 1-(3-(1-(6-(methylamino)pyrimidin-4-yl)piperidin-3-yl)phenyl)-3-phenylurea]
[1]
  IC50: > 10 µM

## O=C1Cc2c(ncnc2N2CCCC(c3cccc(NC(=O)Nc4ccccc4)c3)C2)N1 (stereo not drawn) [Cmpd 96, 1-(3-(1-(6-oxo-6,7-dihydro-5H-pyrrolo[2,3-d]pyrimidin-4-yl)piperidin-3-yl)phenyl)-3-phenylurea]
  IC50: 1 to 10 µM

## COc1c(N)ncnc1N1CCCC(c2cccc(NC(=O)Nc3ccccc3)c2)C1 (stereo not drawn) [Cmpd 97, 1-(3-(1-(6-Amino-5-methoxypyrimidin-4-yl)piperidin-3-yl)phenyl)-3-phenylurea]
[1]
  IC50: > 10 µM

## Cc1c(N)ncnc1N1CCCC(c2cccc(NC(=O)Nc3ccccc3)c2)C1 (stereo not drawn) [Cmpd 98, 1-(3-(1-(6-Amino-5-methylpyrimidin-4-yl)piperidin-3-yl)phenyl)-3-phenylurea]
  IC50: 1 to 10 µM

## Nc1ncnc(N2CCCC(c3cccc(NC(=O)Nc4ccccc4)c3)C2)c1Cl (stereo not drawn) [Cmpd 99, 1-(3-(1-(6-Amino-5-chloropyrimidin-4-yl)piperidin-3-yl)phenyl)-3-phenylurea]
  IC50: 1 to 10 µM

## O=C(Nc1ccccc1)Nc1cccc(C2CCCN(c3ncnc4[nH]nc(Br)c34)C2)c1 (stereo not drawn) [Cmpd 100, 1-(3-(1-(3-Bromo-1H-pyrazolo[3,4-d]pyrimidin-4-yl)piperidin-3-yl)phenyl)-3-phenylurea]
  IC50: 1 to 10 µM

## Nc1ncnc(N2CCCC(c3cccc(NC(=O)Nc4ccccc4)c3)C2)c1Br (stereo not drawn) [Cmpd 101, 1-(3-(1-(6-Amino-5-bromopyrimidin-4-yl)piperidin-3-yl)phenyl)-3-phenylurea]
  IC50: 1 to 10 µM
